Experimental data reported in US7179828B2, “Biologically active neopeltolide compounds” (priority 2003, dated 2007).
Converted amounts (≈) assume the structure as drawn. Where two headings read alike, the source gives them in different places.

Legend:
Assay type in all cases: cell-based
[1] = tested on: Candida albicans (American Type Culture Collection strain 44506); test: Agar (disk) diffusion assay
Procedure: (§1) The antifungal activity of neopeltolide against Candida albicans (American Type Culture Collection strain 44506) was determined through the use of both agar diffusion and broth dilution assays.
Agar diffusion assays were performed using Sabouraud Dextrose agar plates seeded with the test microbe at 10^5/ml. Disks (6.35 mm, Schliecher and Schuell) were impregnated with 25 μg of neopeltolide, allowed to dry and then placed on the agar surface. After incubation at 37° C. for 24 hours the zones of growth inhibition were determined. A control disk containing 100 IU nystatin was run on the same plate as the neopeltolide: the zone of inhibition was 28 mm.

[2] = tested on: A549 human lung adenocarcinoma; test: In vitro proliferation of A549 tumor cells (MTT); conditions: 72-h exposure
Procedure: (§2) Neopeltolide was analyzed as to its effect on the proliferation of A549 human lung adenocarcinoma, NCI-ADR-RES (Formerly MCF-7/ADR) human breast cancer and P388 murine leukemia cell lines. P388 cells were obtained from Dr. R. Camalier, National Cancer Institute, Bethesda, Md., and A549 and NCI-ADR-RES cells were obtained from American Type Culture Collection, Rockville, Md.
(§3) All cell lines are maintained in Roswell Park Memorial Institute (RPMI) medium 1640 supplemented with 100 U/mL penicillin 100 μg/ml streptomycin, 60 μg/ml L-glutamine, 18 mM HEPES, 0.05 mg/mL gentamycin and 10% fetal bovine serum. […]
(§4) A volume of 75 μl of warm growth media containing 5 mg/ml MTT is added to each well, cultures returned to the incubator, and left undisturbed for 3 hours. To spectrophotometrically quantitate formation of reduced formazan, plates are centrifuged (900×g, 5 minutes), culture fluids removed by aspiration, and 200 μl of acidified isopropanol (2 ml concentrated HC/liter isopropanol) added per well. The absorbance of the resulting solutions is measured at 570 nm with a plate reader (Spectra II Tecan Laboratories). […]
(§5) The two standard drug controls (indicated above) are included in each assay to monitor the drug sensitivity of each of the cell lines and IC50 values are determined for each drug-cell combination.

[3] = tested on: NCI-ADR-RES (Formerly MCF-7/ADR) human breast cancer; test: In vitro proliferation of NCI-ADR-RES tumor cells (MTT); conditions: 72-h exposure, read-out: NCIADR-RES IC50
Procedure: as §2, §3, §4, §5

P388 murine leukemia = test: In vitro proliferation of P388 tumor cells (MTT); conditions: Mus musculus, 48-hr exposure
Procedure: as §2, §3, §4, §5

[4] = tested on: Candida albicans (American Type Culture Collection strain 44506); test: Broth dilution assay (MIC); conditions: read-out: Minimum Inhibitory Concentration (MIC)
Procedure: as §1
Broth dilution assays were performed as standard 96-well microtiter assays in a total volume of 50 μl with a seeding density of 10^3 cells/ml. The concentration range for neopeltolide ranged from 5 to 0.4 μg/ml as two-fold dilutions.

For C[C@@H]1[C@H](O)[C@@H](C)/C=C/C=C/CC/C=C/C=C/C=C/C=C/C(O[C@H]2O[C@H](C)[C@@H](O)[C@H](N)[C@@H]2O)CC2O[C@](O)(CC(O)C(O)CCC(O)CC(O)CC(O)CC(=O)O[C@H]1C)CC(O)C2C(=O)O (stereo partly shown) [nystatin, reference compound], the zone of inhibition ([1]; control disk containing 100 IU, C. albicans, 37° C., 24 hours) was 28 mm.
CCCC1CC(OC)CC(C)CC2CC(OC(=O)/C=C\CCc3coc(/C=C\CNC(=O)OC)n3)CC(CC(=O)O1)O2 (stereo not shown) [Neopeltolide (I), Neopeltolide] showed an IC50 [2] of 1.17 nM, an IC50 [3] of 5.1 nM and an IC50 (P388 murine leukemia) of 0.56 nM. For the same molecule, the zone of inhibition at 25 µg/disc ([1]; Candida albicans, 24 h, read-out: growth inhibitory zone) was 17 mm and the MIC ([4]; 24 h) was 0.625 µg/mL (≈ 1.06 µM).
Work on Nc1nc(=O)[nH]cc1F [5-fluorocytosine, reference compound] yielded an MIC ([4]; C. albicans, 96-well broth dilution, 37° C., 24 hours, complete inhibition of growth) of 0.62 µg/mL (≈ 4.8 µM).
